Active and inactive are the calls of the source. The calls are words filed in the database; no cut-off is given here.

Consider 20 molecules from ChEMBL document CHEMBL1138225, “Synthesis and structure-activity relationships of 3,8-diazabicyclo[4.2.0]octane ligands, potent nicotinic acetylcholine receptor agonists” (J Med Chem, 2006).

Assay [1] addresses Neuronal acetylcholine receptor; alpha4/beta2 (Rattus norvegicus, UniProt P09483+P12390). Kind of assay: Displacement of [3H]cytisine from alpha-4-beta-2 ACHR in rat brain homogenate. In kind it is tissue-based.
Assay [2] relates to Rattus norvegicus. Kind of assay: Activity in rat formalin model measured as reduction in flinches at 19 umol/kg, ip. The class given is functional. On the set-up: scale not given: the % may be the effect or the level left.
Assay [3] has as its target T1, Neuronal acetylcholine receptor; alpha3/beta4 (Homo sapiens, UniProt P30926+P32297). Kind of assay: Agonist activity at human alpha-3-beta-4 ACHR expressed in HEK293 cells assessed as change in intracellular calcium concentration by FLIPR. The class given is functional, cell-based. Background: Calcium assays in cells follow changes in intracellular calcium, usually with a dye or a luminescent sensor.

For assay [4], the target named is T2, Neuronal acetylcholine receptor; alpha4/beta2 (Homo sapiens, UniProt P17787+P43681). The assay can be described thus: Agonist activity at human alpha4beta2 ACHR expressed in HEK293 cells assessed as change in intracellular calcium concentration by FLIPR. In kind it is functional, cell-based.
In assay [5] the target is T2, Neuronal acetylcholine receptor; alpha4/beta2. The assay can be described thus: Maximal agonist activity on human alpha-4-beta-2 ACHR expressed in HEK293 cells assessed as change in intracellular calcium concentration by FLIPR relative to nicotine. The class given is functional, cell-based.
The target of assay [6] is T1, Neuronal acetylcholine receptor; alpha3/beta4. Kind of assay: Maximal agonist activity at human alpha-3-beta-4 ACHR expressed in HEK293 cells assessed as change in intracellular calcium concentration by FLIPR relative to nicotine. In kind it is functional, cell-based.
In assay [7] the test system is Rattus norvegicus. The assay can be described thus: Activity in rat formalin model measured as reduction in flinches at 6.2 umol/kg, ip. The class given is functional. Also noted: scale not given: the % may be the effect or the level left.
Assay [8] relates to Rattus norvegicus. Kind of assay: Induction of behavioral side effects in rat formalin model upto 19 umol/kg, […]. In kind it is functional, organism-based.
Assay [9] concerns Rattus norvegicus. The assay can be described thus: Activity in rat formalin model measured as reduction in flinches at 0.19 umol/kg, ip. The class given is functional. Also noted: scale not given: the % may be the effect or the level left.
The species entered for assay [10] is Rattus norvegicus. The assay can be described thus: Activity in rat formalin model measured as reduction in flinches. In kind it is functional, organism-based.
The species entered for a further assay is Homo sapiens. The assay can be described thus: Selectivity for human alpha4beta2 ACHR over alpha-3-beta-4 ACHR. The class given is functional.

T1 sequence (P30926 whole entry): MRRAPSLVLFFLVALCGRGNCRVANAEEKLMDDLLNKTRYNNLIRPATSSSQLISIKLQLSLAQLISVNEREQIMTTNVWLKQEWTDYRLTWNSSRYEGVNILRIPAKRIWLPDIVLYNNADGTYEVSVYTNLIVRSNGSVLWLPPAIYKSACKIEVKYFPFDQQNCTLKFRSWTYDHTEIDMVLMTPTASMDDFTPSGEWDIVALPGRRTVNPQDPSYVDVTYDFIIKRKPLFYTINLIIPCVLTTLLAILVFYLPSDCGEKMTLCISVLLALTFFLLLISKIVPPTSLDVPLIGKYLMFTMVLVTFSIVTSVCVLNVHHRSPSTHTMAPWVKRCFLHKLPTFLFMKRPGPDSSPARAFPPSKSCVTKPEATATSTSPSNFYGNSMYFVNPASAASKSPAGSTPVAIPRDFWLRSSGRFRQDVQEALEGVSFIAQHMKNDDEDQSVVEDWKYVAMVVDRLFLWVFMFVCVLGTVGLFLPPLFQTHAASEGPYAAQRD
T1 sequence (P32297 whole entry): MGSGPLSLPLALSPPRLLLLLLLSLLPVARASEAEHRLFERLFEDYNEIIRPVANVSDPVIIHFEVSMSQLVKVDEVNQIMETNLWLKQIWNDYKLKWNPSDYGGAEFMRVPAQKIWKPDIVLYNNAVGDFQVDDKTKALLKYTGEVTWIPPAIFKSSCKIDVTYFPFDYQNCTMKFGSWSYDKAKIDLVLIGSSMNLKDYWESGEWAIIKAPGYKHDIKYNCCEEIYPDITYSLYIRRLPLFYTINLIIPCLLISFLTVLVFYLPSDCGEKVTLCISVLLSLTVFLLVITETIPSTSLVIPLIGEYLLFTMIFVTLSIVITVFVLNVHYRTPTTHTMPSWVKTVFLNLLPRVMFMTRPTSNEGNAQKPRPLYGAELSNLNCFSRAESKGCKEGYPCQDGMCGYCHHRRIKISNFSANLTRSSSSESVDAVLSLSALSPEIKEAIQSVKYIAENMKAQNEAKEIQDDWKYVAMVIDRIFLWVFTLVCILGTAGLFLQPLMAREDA
Chain of Neuronal acetylcholine receptor; alpha4/beta2 (Rattus norvegicus, UniProt P09483+P12390) (P09483 whole entry): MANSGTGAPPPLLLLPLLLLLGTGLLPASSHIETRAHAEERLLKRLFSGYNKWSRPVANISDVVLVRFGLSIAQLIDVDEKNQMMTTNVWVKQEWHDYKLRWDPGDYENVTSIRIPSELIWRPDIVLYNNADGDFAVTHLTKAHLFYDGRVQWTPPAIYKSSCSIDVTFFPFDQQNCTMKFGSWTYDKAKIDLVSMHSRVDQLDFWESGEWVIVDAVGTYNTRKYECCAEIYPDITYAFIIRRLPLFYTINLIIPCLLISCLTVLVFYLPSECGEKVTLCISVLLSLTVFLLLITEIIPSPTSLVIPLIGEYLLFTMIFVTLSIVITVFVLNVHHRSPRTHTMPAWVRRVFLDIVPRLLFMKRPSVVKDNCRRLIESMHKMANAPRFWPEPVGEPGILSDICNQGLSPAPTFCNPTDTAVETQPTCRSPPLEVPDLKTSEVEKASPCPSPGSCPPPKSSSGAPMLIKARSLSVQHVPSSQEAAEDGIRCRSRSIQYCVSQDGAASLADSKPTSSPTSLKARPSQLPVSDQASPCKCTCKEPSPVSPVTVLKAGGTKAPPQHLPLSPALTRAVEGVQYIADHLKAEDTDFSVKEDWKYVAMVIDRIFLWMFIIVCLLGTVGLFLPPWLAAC
Chain of Neuronal acetylcholine receptor; alpha4/beta2 (Rattus norvegicus, UniProt P09483+P12390) (P12390 whole entry): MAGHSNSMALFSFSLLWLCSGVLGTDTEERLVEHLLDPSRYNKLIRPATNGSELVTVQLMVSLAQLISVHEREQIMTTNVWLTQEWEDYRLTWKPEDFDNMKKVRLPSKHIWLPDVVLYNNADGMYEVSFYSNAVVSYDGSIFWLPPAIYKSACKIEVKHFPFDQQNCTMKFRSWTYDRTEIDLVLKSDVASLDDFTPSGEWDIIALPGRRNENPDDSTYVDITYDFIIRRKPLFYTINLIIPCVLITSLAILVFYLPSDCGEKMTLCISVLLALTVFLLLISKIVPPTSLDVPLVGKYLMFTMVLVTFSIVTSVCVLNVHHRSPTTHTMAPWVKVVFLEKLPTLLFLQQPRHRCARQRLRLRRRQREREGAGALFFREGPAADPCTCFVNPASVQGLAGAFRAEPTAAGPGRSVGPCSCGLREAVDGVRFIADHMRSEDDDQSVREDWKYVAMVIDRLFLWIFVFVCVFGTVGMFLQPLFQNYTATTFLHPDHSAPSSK
T2 sequence (P17787 whole entry): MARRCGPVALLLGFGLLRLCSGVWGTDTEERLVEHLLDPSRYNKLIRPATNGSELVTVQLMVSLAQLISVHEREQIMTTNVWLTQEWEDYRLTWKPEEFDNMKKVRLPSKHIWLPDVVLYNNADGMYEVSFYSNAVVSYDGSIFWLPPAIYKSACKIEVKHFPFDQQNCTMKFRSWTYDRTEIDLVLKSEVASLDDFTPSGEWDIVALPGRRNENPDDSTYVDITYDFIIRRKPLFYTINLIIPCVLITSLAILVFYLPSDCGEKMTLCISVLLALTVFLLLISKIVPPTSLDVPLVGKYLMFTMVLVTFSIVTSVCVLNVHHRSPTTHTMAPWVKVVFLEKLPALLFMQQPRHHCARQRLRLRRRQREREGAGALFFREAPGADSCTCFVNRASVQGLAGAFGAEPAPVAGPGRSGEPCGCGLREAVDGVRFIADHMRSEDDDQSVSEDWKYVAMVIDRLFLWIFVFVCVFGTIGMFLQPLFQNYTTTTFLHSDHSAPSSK
T2 sequence (P43681 whole entry): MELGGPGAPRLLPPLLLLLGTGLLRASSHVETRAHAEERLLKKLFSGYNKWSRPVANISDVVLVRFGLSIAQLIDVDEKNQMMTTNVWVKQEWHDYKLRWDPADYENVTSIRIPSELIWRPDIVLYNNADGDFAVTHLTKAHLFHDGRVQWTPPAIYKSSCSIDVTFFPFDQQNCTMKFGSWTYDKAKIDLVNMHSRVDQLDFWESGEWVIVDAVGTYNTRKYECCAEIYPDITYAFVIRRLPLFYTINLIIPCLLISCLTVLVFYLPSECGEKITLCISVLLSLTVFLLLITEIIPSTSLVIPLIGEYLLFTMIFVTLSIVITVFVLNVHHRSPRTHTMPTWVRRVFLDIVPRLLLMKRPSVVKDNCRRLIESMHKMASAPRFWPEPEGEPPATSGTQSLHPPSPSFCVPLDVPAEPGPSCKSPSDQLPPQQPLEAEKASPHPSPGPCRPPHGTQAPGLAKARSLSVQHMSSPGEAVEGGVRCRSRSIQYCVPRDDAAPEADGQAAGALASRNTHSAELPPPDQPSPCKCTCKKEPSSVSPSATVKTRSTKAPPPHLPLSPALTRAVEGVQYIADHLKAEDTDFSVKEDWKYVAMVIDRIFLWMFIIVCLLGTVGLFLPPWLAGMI

Take `Brc1cc(N2CC[C@@H]3CN[C@@H]3C2)cnc1Br`: the affinity in assay [1], expressed as Ki, was 0.024 nM. Moreover, the Activity with Rattus norvegicus [2] amounted to 26%; in [5], 86%; in assay [6], 100%. In addition, the figures for the EC50 in assay [3] and in assay [4] were 110 nM and 76 nM, respectively.
For `Brc1cc(N2CC[C@H]3CN[C@H]3C2)cnc1Br`, the Ki – broadly, a dissociation constant, usually derived from enzyme kinetics or from competition with a known ligand – in [1] was found to be 0.014 nM. The EC50 (usually the midpoint of the concentration-response curve) in assay [3] worked out at 8.2 nM; in [4], 7.8 nM. Further, the Activity in [5] came out at 209%; in assay [6] it was 117%; in the assay on Rattus norvegicus [7], 99%. For the same molecule, in the assay with Rattus norvegicus [8], the outcome was inactive.
Turning to `O=[N+]([O-])c1ccc(N2CC[C@@H]3CN[C@@H]3C2)cn1`, the affinity in [1] corresponds to a Ki of 2.4 nM. In addition, the EC50 was found to be 830 nM in assay [3] and 110 nM in assay [4]. Also, the figures for the Activity in assay [5] and in assay [6] were 114% and 98%, respectively. Moreover, the outcome in the assay with Rattus norvegicus [8] was Active.
Molecule `Clc1ccc(N2C[C@@H]3CCNC[C@@H]32)cn1` showed a Ki in [1] of 0.12 nM. Moreover, the EC50 is 1390 nM in [3] and 37.4 nM in assay [4]. Besides, the Activity in the assay on Rattus norvegicus [9] worked out at 50%; in assay [5] it was 94%; in assay [6] it was 129%.
On to `Clc1cc(N2CC[C@@H]3CN[C@@H]3C2)cnc1Cl`, for which the affinity in assay [1], expressed as Ki, was 0.027 nM. For the same molecule, the Activity came to 55% with Rattus norvegicus [2], 79% in assay [5] and 111% in [6]. The EC50 in assay [3] is 110 nM; in assay [4], 82 nM.
As for `Clc1cc(N2C[C@@H]3CCNC[C@@H]32)cnc1Cl`, the EC50 in assay [3] came out at 4110 nM; in assay [4] it was 271 nM. In addition, the values for the Activity in assay [5] and in assay [6] were 60% and 69%, respectively. The outcome in the assay on Rattus norvegicus [8] was Active.
Regarding `c1cncc(N2C[C@@H]3CCNC[C@@H]32)c1`, the EC50 in [3] is 1700 nM; in assay [4], 410 nM. Moreover, the Activity in [5] came to 105%; in assay [6], 98%. The result in the assay with Rattus norvegicus [8] was Active.
In turn, `Cc1cc(N2C[C@H]3CCNC[C@H]32)cnc1Cl` had an inhibitory constant (Ki) in [1] of 0.24 nM. For the same molecule, the Activity in the assay on Rattus norvegicus [2] came to 75%; in assay [5], 142%; in [6], 103%. The results for the EC50 in assay [3] and in assay [4] were 298 nM and 134 nM, respectively.
Turning to `Cc1cc(N2C[C@@H]3CCNC[C@@H]32)cnc1Cl`, the Ki in assay [1] worked out at 0.043 nM. Besides, the result in the assay with Rattus norvegicus [2] was inactive. The EC50 in assay [3] was 1910 nM; in assay [4], 76.1 nM. Besides, the Activity in assay [5] came to 103%; in assay [6], 91%. For the same molecule, in the assay with Rattus norvegicus [8], the result was Active.
`COc1cncc(N2CC[C@@H]3CN[C@@H]3C2)c1` had a Ki in assay [1] of 0.18 nM. Further, the EC50 was 4500 nM in assay [3] and 2700 nM in assay [4]. The result in the assay listed under Rattus norvegicus [10] was inactive. Further, the Activity was 35% in assay [5] and 86% in [6].
With `N#Cc1cncc(N2CC[C@@H]3CN[C@@H]3C2)c1`, in [1], affinity was put at a Ki of 0.065 nM. The outcome in the assay with Rattus norvegicus [2] was inactive. Besides, the EC50 is 490 nM in assay [3] and 1900 nM in assay [4]. Besides, the Activity was 76% in [5] and 116% in [6].
On to `Cc1cncc(N2CC[C@@H]3CN[C@@H]3C2)c1`, for which, in assay [1], the Ki worked out at 0.064 nM. In addition, the EC50 stood at 1400 nM in assay [3] and 650 nM in assay [4]. In addition, the Activity came to 54% in [5] and 87% in [6]. In addition, in the assay on Rattus norvegicus [8], the outcome was inactive.
On to `Clc1ccc(N2CC[C@@H]3CN[C@@H]3C2)nn1`, for which the Ki in assay [1] was 2.7 nM. Further, the figures for the EC50 in [3] and in assay [4] were 394 nM and 359 nM, respectively. For the same molecule, the Activity was 129% in [5] and 113% in assay [6]. Besides, the outcome in the assay with Rattus norvegicus [8] was Active.
Regarding `COc1cncc(N2CC[C@H]3CN[C@H]3C2)c1`, in assay [1], the Ki stood at 0.038 nM. Besides, the results for the EC50 in [3] and in assay [4] were 180 nM and 130 nM, respectively. The values for the Activity result (in the assay listed under Rattus norvegicus [10]; in [5]; in assay [6]) were “Dose-dependent effect”, 178% and 103%, respectively. Further, in the assay with Rattus norvegicus [8], the outcome was inactive.
In [1], `N#Cc1cc(N2C[C@@H]3CCNC[C@@H]32)cnc1Br` yielded a Ki of 0.07 nM. The EC50 came to 794 nM in assay [3] and 109 nM in assay [4]. Besides, the Activity in [5] is 104%; in assay [6], 88%. Besides, in the assay on Rattus norvegicus [8], the result was Active.
For the molecule `N#Cc1cncc(N2CC[C@H]3CN[C@H]3C2)c1`, the Ki in assay [1] came to 0.12 nM. Also, the EC50 in [3] came out at 1000 nM; in assay [4] it was 1900 nM. For the same molecule, the values for the Activity (in assay [5]; in assay [6]; with Rattus norvegicus [7]) were 112%, 127% and 80%, respectively.
In assay [1], `COc1cncc(N2C[C@H]3CCNC[C@H]32)c1` had a Ki of 0.56 nM. The results for the EC50 in assay [3] and in assay [4] were 4360 nM and 1100 nM, respectively. Also, the Activity in [5] stood at 104%; in assay [6] it was 88%.
For the molecule `Clc1ccc(N2CC[C@H]3CN[C@H]3C2)cn1`, in [1], the Ki was 0.019 nM. Further, in the assay filed under Homo sapiens, the Ratio EC50 came to 2. The EC50 in assay [3] was determined as 29 nM; in [4] it was 13 nM. Moreover, the results for the Activity in assay [5] and in assay [6] were 114% and 151%, respectively.
In turn, `NC(=O)c1cc(N2C[C@@H]3CCNC[C@@H]32)cnc1Br` returned a Ki in [1] of 2.8 nM. The EC50 is 23300 nM in [3] and 1490 nM in assay [4]. Moreover, the figures for the Activity in assay [5] and in assay [6] were 75% and 73%, respectively.
In assay [1], `Cc1cc(N2CC[C@@H]3CN[C@@H]3C2)cnc1Cl` gave a Ki of 0.037 nM. Moreover, the EC50 in assay [3] was determined as 71 nM; in [4], 47 nM. In addition, the Activity in assay [5] is 90%; in [6], 103%. The result in the assay on Rattus norvegicus [8] was inactive.
